According to US12162890B2 (Novartis AG, priority 2015, dated 2024):

Target: HEK293 cells with stable expression of the GRIN1 gene and tetracycline-inducible expression of the GRIN2B gene (NMDA receptor, NR2B) (Homo sapiens, UniProt Q13224)
Assay: Fluo-8 Ca2+ flux assay: reversal of Ro 25-6981-mediated suppression of the Ca2+ response to co-agonist (glutamate/glycine); note: test concentration or dose not given here
Assay type: cell-based
Conditions: reversal of the Ro 25-6981 suppression of the Ca2+ response to co-agonist (glutamate/glycine)

Sequence of HEK293 cells with stable expression of the GRIN1 gene and tetracycline-inducible expression of the GRIN2B gene (NMDA receptor, NR2B) (Q13224 27-1484, other chains not shown): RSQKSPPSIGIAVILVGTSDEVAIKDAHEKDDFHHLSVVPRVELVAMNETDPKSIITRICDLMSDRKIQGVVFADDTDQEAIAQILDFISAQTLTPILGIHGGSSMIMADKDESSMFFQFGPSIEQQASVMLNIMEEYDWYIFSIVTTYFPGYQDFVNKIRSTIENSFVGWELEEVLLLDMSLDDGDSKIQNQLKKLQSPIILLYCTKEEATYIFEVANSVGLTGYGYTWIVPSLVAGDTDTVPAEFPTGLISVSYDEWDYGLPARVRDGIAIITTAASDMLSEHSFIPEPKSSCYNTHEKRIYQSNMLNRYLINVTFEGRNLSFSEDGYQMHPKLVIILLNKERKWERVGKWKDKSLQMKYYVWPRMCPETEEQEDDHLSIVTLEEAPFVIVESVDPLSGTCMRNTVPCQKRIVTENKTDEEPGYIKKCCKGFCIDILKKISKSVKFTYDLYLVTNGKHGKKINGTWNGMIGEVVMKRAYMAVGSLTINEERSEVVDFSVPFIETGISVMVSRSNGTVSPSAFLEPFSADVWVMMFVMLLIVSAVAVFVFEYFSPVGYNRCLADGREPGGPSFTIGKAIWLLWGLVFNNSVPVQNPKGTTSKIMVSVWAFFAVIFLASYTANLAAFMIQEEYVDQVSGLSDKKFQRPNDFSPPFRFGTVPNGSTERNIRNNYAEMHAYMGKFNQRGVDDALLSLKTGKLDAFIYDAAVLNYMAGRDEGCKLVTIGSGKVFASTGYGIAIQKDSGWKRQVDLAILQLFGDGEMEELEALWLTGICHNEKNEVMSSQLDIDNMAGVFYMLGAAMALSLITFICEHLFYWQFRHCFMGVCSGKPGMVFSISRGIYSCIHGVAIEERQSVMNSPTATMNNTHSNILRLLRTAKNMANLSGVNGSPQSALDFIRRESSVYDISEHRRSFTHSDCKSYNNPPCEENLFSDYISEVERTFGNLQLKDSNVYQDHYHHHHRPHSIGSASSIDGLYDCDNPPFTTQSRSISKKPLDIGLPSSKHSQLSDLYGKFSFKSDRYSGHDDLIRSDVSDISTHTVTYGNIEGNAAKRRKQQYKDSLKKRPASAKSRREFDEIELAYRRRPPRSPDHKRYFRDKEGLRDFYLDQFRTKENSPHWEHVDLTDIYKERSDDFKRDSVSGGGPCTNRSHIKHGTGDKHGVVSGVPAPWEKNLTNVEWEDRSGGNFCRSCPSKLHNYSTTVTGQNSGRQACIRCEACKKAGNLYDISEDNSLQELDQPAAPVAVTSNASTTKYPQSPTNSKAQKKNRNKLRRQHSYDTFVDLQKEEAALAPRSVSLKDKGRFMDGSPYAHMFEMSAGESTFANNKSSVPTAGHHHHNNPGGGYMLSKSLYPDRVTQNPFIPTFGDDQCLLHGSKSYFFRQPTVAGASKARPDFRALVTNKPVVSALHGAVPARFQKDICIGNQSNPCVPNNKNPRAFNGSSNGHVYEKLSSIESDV

**Q.** How did the “Response Recovered (%)” value turn out when `O=C(Cn1ccc2scc(-c3cnc(F)c(F)c3)c2c1=O)N1CC(F)(CF)C1` [Example 144, 3-(5,6-difluoropyridin-3-yl)-5-(2-(3-fluoro-3-(fluoromethyl)azetidin-1-yl)-2-oxoethyl)thieno[3,2-c]pyridin-4(5H)-one] was run?
**A.** The value was 9.8%.

**Q.** `O=C(Cn1ccn2ncc(-c3ccc(F)c(Cl)c3)c2c1=O)N1CC(F)(F)C1` [Example 328, 3-(3-chloro-4-fluorophenyl)-5-(2-(3,3-difluoroazetidin-1-yl)-2-oxoethyl)pyrazolo[1,5-a]pyrazin-4(5H)-one] was tested. Which “Response Recovered (%)” value did it give?
**A.** The value was 29%.

**Q.** How did the “Response Recovered (%)” value turn out when `O=C(Cn1cnc2c(Br)sc(-c3ccc(Cl)c(F)c3)c2c1=O)N1CCCC1` [Example 368, 7-bromo-5-(4-chloro-3-fluorophenyl)-3-(2-oxo-2-(pyrrolidin-1-yl)ethyl)thieno[3,4-d]pyrimidin-4(3H)-one] was run?
**A.** Its value is 41%.

**Q.** With `COCn1cc(-c2ccc(F)c(C(F)(F)F)c2)c2c(=O)n(CC(=O)N3CC(F)C(F)C3)ccc21` (centres unmarked) [Example 242, 5-(2-(3,4-difluoropyrrolidin-1-yl)-2-oxoethyl)-3-(4-fluoro-3-(trifluoromethyl)phenyl)-1-(methoxymethyl)-1H-pyrrolo[3,2-c]pyridin-4(5H)-one] as the compound, how does the “Response Recovered (%)” value read?
**A.** Its value is 110%.

**Q.** Which “Response Recovered (%)” value does the source give for `O=C(Cn1cnc2csc(-c3ccc(Cl)cc3)c2c1=O)N1CCC(O)C1` (centres unmarked) [Example 352, 5-(4-chlorophenyl)-3-(2-(3-hydroxypyrrolidin-1-yl)-2-oxoethyl)thieno[3,4-d]pyrimidin-4(3H)-one] here?
**A.** Its value is 7%.

**Q.** Which “Response Recovered (%)” value does the source give for `O=C(Cn1cc(-c2ccncc2)c2scc(-c3ccc(F)c(C(F)(F)F)c3)c2c1=O)N1CCCC1` [Example 105, 3-(4-fluoro-3-(trifluoromethyl)phenyl)-5-(2-oxo-2-(pyrrolidin-1-yl)ethyl)-7-(pyridin-4-yl)thieno[3,2-c]pyridin-4(5H)-one] here?
**A.** The value was 22%.

**Q.** How did the “Response Recovered (%)” value turn out when `O=C(Cn1ccc2scc(-c3ccc(F)c(Cl)c3)c2c1=O)N1CC(F)(CF)C1` [Example 81, 3-(3-chloro-4-fluorophenyl)-5-(2-(3-fluoro-3-(fluoromethyl)azetidin-1-yl)-2-oxoethyl)thieno[3,2-c]pyridin-4(5H)-one] was run?
**A.** Its value is 140%.

**Q.** How did the “Response Recovered (%)” value turn out when `O=C(Cn1ccc2scc(-c3cncc(Cl)n3)c2c1=O)N1CC(F)(CF)C1` [Example 146, 3-(6-chloropyrazin-2-yl)-5-(2-(3-fluoro-3-(fluoromethyl)azetidin-1-yl)-2-oxoethyl)thieno[3,2-c]pyridin-4(5H)-one] was run?
**A.** Its value is −3.8%.

**Q.** `O=C(Cn1ccc2c(c(-c3ccc(Cl)c(Cl)c3)cn2CCF)c1=O)N1CCC(F)C1` (centres unmarked) [Example 273, 3-(3,4-dichlorophenyl)-1-(2-fluoroethyl)-5-[2-(3-fluoropyrrolidin-1-yl)-2-oxoethyl]-1H,4H,5H-pyrrolo[3,2-c]pyridin-4-one] was tested. Which “Response Recovered (%)” value did it give?
**A.** The value was 93%.

**Q.** How did the “Response Recovered (%)” value turn out when `O=C(Cn1ccc2scc(-c3ccc(F)c(Cl)c3)c2c1=O)N1CC(F)(C2CC2)C1` [Example 44, 3-(3-chloro-4-fluorophenyl)-5-(2-(3-cyclopropyl-3-fluoroazetidin-1-yl)-2-oxoethyl)thieno[3,2-c]pyridin-4(5H)-one] was run?
**A.** The value was 63%.

**Q.** How did the “Response Recovered (%)” value turn out when `O=C(Cn1ncc2scc(-c3ccc(F)c(Cl)c3)c2c1=O)N1CCCC1` [Example 337, 3-(3-chloro-4-fluorophenyl)-5-(2-oxo-2-(pyrrolidin-1-yl)ethyl)thieno[2,3-d]pyridazin-4(5H)-one] was run?
**A.** The value was 7%.

**Q.** With `N#Cc1ncc(-c2csc3ccn(CC(=O)N4CC(F)(CF)C4)c(=O)c23)cc1Cl` [Example 138, 3-chloro-5-(5-(2-(3-fluoro-3-(fluoromethyl)azetidin-1-yl)-2-oxoethyl)-4-oxo-4,5-dihydrothieno[3,2-c]pyridin-3-yl)picolinonitrile] as the compound, how does the “Response Recovered (%)” value read?
**A.** The value was 10%.

**Q.** With `O=C(Cn1ccc2c(c(-c3ccc(Cl)c(Cl)c3)cn2CC(F)(F)F)c1=O)N1CCC(F)C1` (centres unmarked) [Example 275, 3-(3,4-dichlorophenyl)-5-(2-(3-fluoropyrrolidin-1-yl)-2-oxoethyl)-1-(2,2,2-trifluoroethyl)-1H-pyrrolo[3,2-c]pyridin-4(5H)-one] as the compound, how does the “Response Recovered (%)” value read?
**A.** Its value is 100%.

**Q.** How did the “Response Recovered (%)” value turn out when `O=C(Cn1cnc2[nH]cc(-c3cnc(Cl)c(C(F)(F)F)c3)c2c1=O)N1CCC(F)C1` (centres unmarked) [Example 183, 5-(6-chloro-5-(trifluoromethyl)pyridin-3-yl)-3-(2-(3-fluoropyrrolidin-1-yl)-2-oxoethyl)-3H-pyrrolo[2,3-d]pyrimidin-4(7H)-one] was run?
**A.** Its value is 14%.

**Q.** `CC1(F)CN(C(=O)Cn2ccc3c(c(-c4ccc(F)c(C(F)(F)F)c4)cn3C3CC3)c2=O)C1` [Example 287, 1-cyclopropyl-3-(4-fluoro-3-(trifluoromethyl)phenyl)-5-(2-(3-fluoro-3-methylazetidin-1-yl)-2-oxoethyl)-1H-pyrrolo[3,2-c]pyridin-4(5H)-one] was tested. Which “Response Recovered (%)” value did it give?
**A.** The value was 140%.

**Q.** Which “Response Recovered (%)” value does the source give for `O=C(Cn1ccc2scc(-c3ccc(Cl)c(C(F)(F)F)c3)c2c1=O)N1C[C@@H](F)[C@@H](F)C1` [Example 14, 3-(4-chloro-3-(trifluoromethyl)phenyl)-5-(2-((3S,4R)-3,4-difluoropyrrolidin-1-yl)-2-oxoethyl)thieno[3,2-c]pyridin-4(5H)-one] here?
**A.** Its value is 99%.

**Q.** For `O=C(Cn1ccc2scc(-c3ccc(F)c(Cl)c3)c2c1=O)N1CC2(CC2)C1` [Example 71, 3-(3-chloro-4-fluorophenyl)-5-(2-oxo-2-(5-azaspiro[2.3]hexan-5-yl)ethyl)thieno[3,2-c]pyridin-4(5H)-one], which “Response Recovered (%)” value is on record?
**A.** Its value is 46%.

**Q.** For `CC1(F)CN(C(=O)Cn2ccc3scc(-c4ccc(F)c(Cl)c4)c3c2=O)C1` [Example 39, 3-(3-chloro-4-fluorophenyl)-5-(2-(3-fluoro-3-methylazetidin-1-yl)-2-oxoethyl)thieno[3,2-c]pyridin-4(5H)-one], which “Response Recovered (%)” value is on record?
**A.** Its value is 140%.

**Q.** `Cc1cc(-c2nc(C3CC3)n3ccn(CC(=O)N4CC(C)(F)C4)c(=O)c23)ccc1F` [Example 442, 3-cyclopropyl-7-(2-(3-fluoro-3-methylazetidin-1-yl)-2-oxoethyl)-1-(4-fluoro-3-methylphenyl)imidazo[1,5-a]pyrazin-8(7H)-one] was tested. Which “Response Recovered (%)” value did it give?
**A.** Its value is 65%.

**Q.** With `O=C(Cn1ccc2c(c(-c3ccc(F)c(C(F)(F)F)c3)cn2CC(F)F)c1=O)N1CCC(F)C1` (centres unmarked) [Example 279, 1-(2,2-difluoroethyl)-3-(4-fluoro-3-(trifluoromethyl)phenyl)-5-(2-(3-fluoropyrrolidin-1-yl)-2-oxoethyl)-1H-pyrrolo[3,2-c]pyridin-4(5H)-one] as the compound, how does the “Response Recovered (%)” value read?
**A.** The value was 71%.

**Q.** `CC1(F)CN(C(=O)Cn2ccn3ccc(-c4ccc(Cl)c(Cl)c4)c3c2=O)C1` [Example 396, 8-(3,4-dichlorophenyl)-2-(2-(3-fluoro-3-methylazetidin-1-yl)-2-oxoethyl)pyrrolo[1,2-a]pyrazin-1(2H)-one] was tested. Which “Response Recovered (%)” value did it give?
**A.** Its value is 140%.

**Q.** How did the “Response Recovered (%)” value turn out when `O=C(Cn1cnc2ccn(-c3ccc(Cl)cc3)c2c1=O)N1CCOCC1` [Example 371, 5-(4-chlorophenyl)-3-(2-morpholino-2-oxoethyl)-3H-pyrrolo[3,2-d]pyrimidin-4(5H)-one] was run?
**A.** Its value is 1%.

**Q.** How did the “Response Recovered (%)” value turn out when `O=C(Cn1ccc2[nH]cc(-c3ccc(Cl)c(C(F)(F)F)c3)c2c1=O)N1CCCC1` [Example 198, 3-(4-chloro-3-(trifluoromethyl)phenyl)-5-(2-oxo-2-(pyrrolidin-1-yl)ethyl)-1H-pyrrolo[3,2-c]pyridin-4(5H)-one] was run?
**A.** Its value is 104%.

**Q.** `O=C(Cn1nnc2scc(-c3ccc(Cl)c(C(F)(F)F)c3)c2c1=O)N1CCCC1` [Example 331, 5-[4-chloro-3-(trifluoromethyl)phenyl]-3-[2-oxo-2-(pyrrolidin-1-yl)ethyl]-3H,4H-thieno[2,3-d][1,2,3]triazin-4-one] was tested. Which “Response Recovered (%)” value did it give?
**A.** The value was 8%.

**Q.** How did the “Response Recovered (%)” value turn out when `O=C(Cn1cnc2occ(-c3ccc(Cl)cc3)c2c1=O)N1CC(F)(F)C1` [Example 389, 5-(4-chlorophenyl)-3-(2-(3,3-difluoroazetidin-1-yl)-2-oxoethyl)furo[2,3-d]pyrimidin-4(3H)-one] was run?
**A.** The value was 8%.

**Q.** With `O=C(Cn1ccc2ccc(-c3ccc(Cl)c(C(F)(F)F)c3)cc2c1=O)N1CCC(F)C1` (centres unmarked) [Example 311, 7-(4-chloro-3-(trifluoromethyl)phenyl)-2-(2-(3-fluoropyrrolidin-1-yl)-2-oxoethyl)isoquinolin-1(2H)-one] as the compound, how does the “Response Recovered (%)” value read?
**A.** Its value is 6%.

**Q.** Which “Response Recovered (%)” value does the source give for `O=C(Cn1ccc2scc(-c3ccc(Cl)s3)c2c1=O)N1CCC(F)C1` (centres unmarked) [Example 31, 3-(5-chlorothiophen-2-yl)-5-(2-(3-fluoropyrrolidin-1-yl)-2-oxoethyl)thieno[3,2-c]pyridin-4(5H)-one] here?
**A.** Its value is 34%.

**Q.** With `O=C(Cn1cnc2ccn(-c3ccc(Cl)cc3)c2c1=O)N1CCC(F)(F)CC1` [Example 373, 5-(4-chlorophenyl)-3-(2-(4,4-difluoropiperidin-1-yl)-2-oxoethyl)-3H-pyrrolo[3,2-d]pyrimidin-4(5H)-one] as the compound, how does the “Response Recovered (%)” value read?
**A.** Its value is 3%.

**Q.** With `COCn1cc(-c2ccc(F)c(C(F)(F)F)c2)c2c(=O)n(CC(=O)N3CCC(F)C3)ccc21` (centres unmarked) [Example 238, 3-(4-fluoro-3-(trifluoromethyl)phenyl)-5-(2-(3-fluoropyrrolidin-1-yl)-2-oxoethyl)-1-(methoxymethyl)-1H-pyrrolo[3,2-c]pyridin-4(5H)-one] as the compound, how does the “Response Recovered (%)” value read?
**A.** The value was 65%.

**Q.** With `CCC1(F)CN(C(=O)Cn2ccn3ccc(-c4ccc(F)c(Cl)c4)c3c2=O)C1` [Example 400, 8-(3-chloro-4-fluorophenyl)-2-(2-(3-ethyl-3-fluoroazetidin-1-yl)-2-oxoethyl)pyrrolo[1,2-a]pyrazin-1(2H)-one] as the compound, how does the “Response Recovered (%)” value read?
**A.** Its value is 97%.

**Q.** `N=C(NO)c1cn(CC(=O)N2CCC(F)C2)c(=O)c2c(-c3ccc(F)c(C(F)(F)F)c3)csc12` (centres unmarked) [Example 110, 3-(4-fluoro-3-(trifluoromethyl)phenyl)-5-(2-(3-fluoropyrrolidin-1-yl)-2-oxoethyl)-N-hydroxy-4-oxo-4,5-dihydrothieno[3,2-c]pyridine-7-carboximidamide] was tested. Which “Response Recovered (%)” value did it give?
**A.** Its value is 33%.

**Q.** With `O=C(Cn1ccc2ccc(-c3ccc(Cl)c(Cl)c3)cc2c1=O)N1CCCC1` [Example 316, 7-(3,4-dichlorophenyl)-2-(2-oxo-2-(pyrrolidin-1-yl)ethyl)isoquinolin-1(2H)-one] as the compound, how does the “Response Recovered (%)” value read?
**A.** The value was 2%.
